Source: patent publication US20230149421A1, “MEDICAMENT FOR PREVENTING OR TREATING IRRITABLE BOWEL SYNDROME OR INFLAMMATORY BOWEL DISEASE” (priority 2020, published 2023)

Assays:
Assay type in all cases: in vivo, Sprague-Dawley rats
[1] = system: DNBS-induced colitis model; experiment: Change in body weight and spleen weight in DNBS-induced colitis model; conditions: DNBS rats; for change in body weights: 3, 10 and 30 mg/kg oral immediately after DNBS, 6 days; for spleen weights compared to DNBS-induced colitis model: test compound groups (3, 10, 30 mg/kg) oral
Protocol: Sprague-Dawley rats (body weights of 200 to 225 g) which were male albino rats were used as model animals. Three model animals were housed in one cage in a temperature-controlled environment at 22-24° C., 50-60% humidity, and a light cycle of 12 hours, were given ad libitum access to standard laboratory feed and tap water, and were not used for at least one week after being brought into the laboratory.
A model in which colitis was induced by 2,4-dinitrobenzenesulfonic acid (hereinafter, denoted as DNBS, manufactured by Sigma-Aldrich, Inc.) (in the present specification, referred to as a “DNBS-induced colitis model”) was prepared.
(§1) The induction of colitis was performed according to the method in Antonioli L, et al. (Non Patent Literature 8). 15 mg of 2,4-dinitrobenzenesulfonic acid (DNBS) in 0.25 ml of 50% ethanol was rectally administered through a polyethylene PE-60 catheter inserted 8 cm proximal to the anus, during a short period of anesthesia by Isoflurane (manufactured by Abbott Laboratories). To the control rat, 0.25 ml of 50% ethanol was administered.
Food intake was monitored everyday since initiation of the drug therapy. Furthermore, body weights of the rats were measured every morning, and evidence of blood in diarrhea and a stool or rectal bleeding was examined during the experimental period.

[2] = system: DNBS-induced colitis model; experiment: Macroscopic damage score of colonic tissue in DNBS-induced colitis model; conditions: DNBS rats, 6 days
Protocol: as §1
(§2) The DNBS-induced colitis model and the control rats were euthanized in a CO2 chamber. After death, mid-abdominal incision was performed, and the colon was excised, which was then opened in a longitudinal direction (longitudinal muscle direction), washed with sterile physiological saline, and split into two parts in the longitudinal direction.
Evaluation was performed by scoring the macroscopic damage of the samples. As described above, colonic tissues that had been excised and washed with physiological saline were used as the samples.
The scoring was performed according to the criteria determined by making a minor amendment on the criteria reported in Non Patent Literature 11 (Non Patent Literature 12). […]
(4) Thickness (mm) of colonic tissue (colonic wall): 1 point was scored for 1 mm […]

[3] = system: DNBS-induced colitis model; experiment: Microscopic (histological) damage score of colonic tissue in DNBS-induced colitis model; conditions: DNBS rats, 6 days; for histological damage in colonic tissues compared to DNBS-induced colitis model: test compound groups (3, 10, 30 mg/kg) oral
Protocol: as §1, §2
Evaluation of microscopic damage and inflammation was performed with an optical microscope using a tissue section obtained from a specimen of the entire intestine and stained with hematoxylin/eosin. Evaluation of severity of enteritis was performed by scoring the microscopic damage (histological damage) of the samples. As described above, colonic tissues that had been excised and washed with physiological saline were used as the samples.
The scoring was performed according to the criteria determined by making a minor amendment on the criteria reported in Non Patent Literature 11 (Non Patent Literature 12). The microscopic scoring (scoring of histological damage) criteria for the colonic damage are as shown in the following (1) to (5) (Non Patent Literatures 8 to 10), and the total points in (1) to (5) are used as a score.
(1) Loss of mucosal structure (no loss of mucosal structure: 0 points and mild to severe loss of mucosal structure: 1 to 3 points)
(2) Cellular infiltration (no cellular infiltration: 0 points and mild to severe cellular infiltration: 1 to 3 points)
(3) Muscle thickening (no muscle thickening: 0 points and mild to severe muscle thickening: 1 to 3 points) (4) Crypt abscess (none: 0 points and present: 1 point)
(5) Reduction in goblet cells (not reduced: 0 points and reduced: 1 point) […]

occludin = experiment: Occludin expression in colonic tissue (western blotting), DNBS-induced colitis model; conditions: DNBS rats; 10 mg/kg oral
caspase-1 = experiment: Caspase-1 expression in colonic tissue (western blotting), DNBS-induced colitis model; conditions: DNBS rats; 10 mg/kg oral
Protocol: as §1
Sample preparation and a test method were performed by the same methods as those in Example 7.
Samples were prepared and a test was performed in the same manner as in Example 7, except that an anti-procaspase-1 antibody and an anti-caspase antibody (all ad1872, manufactured by Abcam plc., dilution 1: 1,000) were used as the antibodies, instead of the anti-occludin antibody.
Sample preparation and a test method were performed by the same methods as those in Example 8.

Row | SMILES | change in body weights [1] | spleen weights compared to DNBS-induced colitis model [1] | macroscopic damage scores compared to DNBS-induced colitis model ([2]; 3, 10 and 30 mg/kg oral) | microscopic score compared to DNBS-induced colitis model ([3]; 10 and 30 mg/kg oral) | histological damage in colonic tissues compared to DNBS-induced colitis model [3] | occludin expression in inflamed tissues compared to DNBS-induced colitis model (occludin) | caspase-1 expression in colon in which inflammation was induced (caspase-1) | macroscopic damage scores compared to DNBS-induced colitis model ([2]; 10 and 30 mg/kg oral)
1 | O=C1CC(=O)N(c2ccc(NC(=O)c3ccccc3I)cc2)c2ccc3ccccc3c2N1 [Compound B48, 5-[4-(2-iodobenzoylamino)phenyl]-1H-naphtho[1,2-b][1,4]diazepine-2,4(3H,5H)-dione] | increase in body weights | significantly decreased | significant decrease | significant improvement | decreased in a dose-dependent manner | increased | decreased | –
2 | O=C1CC(=O)N(c2cccc(-c3noc(=S)[nH]3)c2)c2ccc3ccccc3c2N1.[Na] [Compound A17, 5-[3-(5-thioxo-4H-[1,2,4]oxadiazol-3-yl)phenyl]-1H-naphtho[1,2-b][1,4]diazepine-2,4(3H,5H)-dione sodium salt] | increase in body weights | significantly decreased | – | – | not affected | increased | cannot be decreased | significant decrease
